Data as given in patent US20250186541A1, “DLL3 TARGETING PEPTIDES AND CONSTRUCTS THEREOF” (MARIANA ONCOLOGY INC., priority 2023, published 2025).
Numbered stars: 1 amine (or outer) side, 2 acyl side, 3 side chain; on linkers, the order of the positions; unused ones are H or OH. Bridge positions count the residues as written; N and C are the ends. Square brackets hold non-standard residues; d marks the D form. Side chains are listed from the residue outwards. Peptide text beside a SMILES is read from it. * marks the point of attachment. X2 = O=C(O)CN1CCN(CC(=O)O)CCN(CC(=O)N[C@@H](CCCCN*)C(=O)O)CCN(CC(=O)O)CC1; DOTA = O=C(O)CN1CCN(CC(=O)O)CCN(CC(=O)*)CCN(CC(=O)O)CC1; 1Nal = N[C@@H](Cc1cccc2ccccc12)C(=O)O; 2Nal = N[C@@H](Cc1ccc2ccccc2c1)C(=O)O; Phe(2-Me) = Cc1ccccc1C[C@H](N)C(=O)O; mXylylene = c1cc(C[*:1])cc(C[*:2])c1; Trx = NC[C@H]1CC[C@H](C(=O)O)CC1; tBuAla = CC(C)(C)C[C@H](N)C(=O)O; Chg = N[C@H](C(=O)O)C1CCCCC1; αMeP = C[C@@]1(C(=O)O)CCCN1; CH2 = C([*:1])[*:2]; Ahx = NCCCCCC(=O)O

biological target: T1, human DLL3 (Homo sapiens, UniProt Q9NYJ7); assay: Affinity determination by Surface Plasmon Resonance (SPR), Biacore, 1:1 binding model; conditions: biotinylated human DLL3 on streptavidin chip, 25° C.; NB = nonbinding
T1 construct: biotin (biotinylated)
T1 sequence (Q9NYJ7 27-618): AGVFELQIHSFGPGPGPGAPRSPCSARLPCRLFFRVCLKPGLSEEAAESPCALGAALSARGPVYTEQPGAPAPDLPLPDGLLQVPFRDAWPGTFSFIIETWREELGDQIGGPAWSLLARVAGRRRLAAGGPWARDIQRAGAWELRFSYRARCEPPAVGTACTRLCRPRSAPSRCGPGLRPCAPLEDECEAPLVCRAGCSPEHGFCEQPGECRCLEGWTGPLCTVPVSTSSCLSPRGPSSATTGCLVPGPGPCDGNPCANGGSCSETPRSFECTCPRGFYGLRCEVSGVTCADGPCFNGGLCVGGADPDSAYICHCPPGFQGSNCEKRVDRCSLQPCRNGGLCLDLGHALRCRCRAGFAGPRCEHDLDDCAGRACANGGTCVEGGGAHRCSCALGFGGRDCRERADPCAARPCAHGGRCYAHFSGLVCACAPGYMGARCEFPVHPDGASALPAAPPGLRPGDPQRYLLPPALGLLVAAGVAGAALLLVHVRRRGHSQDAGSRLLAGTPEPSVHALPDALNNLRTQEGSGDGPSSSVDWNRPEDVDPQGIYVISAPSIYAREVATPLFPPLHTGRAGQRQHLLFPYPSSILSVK
Description: Example 3. Binding Affinity of Targeting Moieties Polypeptides to DLL3 Affinity Determination by Surface Plasmon Resonance (SPR)
SPR studies were performed on the compounds disclosed herein using the following protocol. […] Biotinylated target ligand human DLL3 was immobilized on a streptavidin sensor chip. A reference surface was set up for nonspecific binding and refractive index changes. For analysis of the kinetics of interactions, varying concentrations of samples were injected at a flow rate of 100 μL/min using running buffer containing 20 mM phosphate buffer with 2.7 mM KCl, 137 mM NaCl, 0.05% Surfactant P20 and 2% DMSO. Sensorgram curves were fitted with 1:1 binding model, and affinity and kinetic parameters were obtained using Biacore Insight evaluation 4.0. software.

| SMILES | Kd [nM] |
| --- | --- |
| CC(=O)N[C@@H](CO)C(=O)N[C@@H](CC(=O)O)C(=O)N[C@H]1CSCSC[C@@H](C(=O)N2CCC[C@H]2C(=O)N[C@@H](Cc2ccccc2)C(=O)N[C@@H](CC(=O)O)C(=O)N[C@H](CCCCNC(=O)CN2CCN(CC(=O)O)CCN(CC(=O)O)CCN(CC(=O)O)CC2)C(N)=O)NC(=O)[C@H](CC(N)=O)NC(=O)[C@H](Cc2c[nH]c3ccccc23)NC(=O)[C@H](CCC(N)=O)NC(=O)[C@H](CC(C)C)NC(=O)[C@H](Cc2c[nH]c3ccccc23)NC1=O [Cpd #66, Ac-S-D-C(1)-W-L-Q-W-N-C(1)-P-F-D-D-Lys(DOTA)-CONH2] (Ac-SDCWLQWNCPFD[dK](DOTA)-NH2; linker 3-9 via CH2) | > 300 |
| CNC(=O)[C@@H](CCCCNC(=O)CN1CCN(CC(=O)O)CCN(CC(=O)O)CCN(CC(=O)O)CC1)NC(=O)[C@H](CC(=O)O)NC(=O)[C@H](Cc1ccccc1)NC(=O)[C@]1(C)CCCN1C(=O)[C@@H]1CSSC[C@H](NC(=O)[C@H](CC(=O)O)NC(=O)[C@H](CO)NC(=O)[C@@H](C)NC(C)=O)C(=O)N[C@@H](Cc2cccc3ccccc23)C(=O)N[C@@H](CC(C)(C)C)C(=O)N[C@@H](CCC(N)=O)C(=O)N[C@@H](Cc2ccc3ccccc3c2)C(=O)N[C@@H](CC(N)=O)C(=O)N1 [Cpd #147, Ac-(D-Ala)-S-D-C(3)-(1Nal)-(t-Bu-Ala)-Q-(2Nal)-N-C(3)-(aMe-P)-F -D-[D-Lys(DOTA)]-CONHMe] (Ac-[dA]SDC[1Nal][tBuAla]Q[2Nal]NC[αMeP]FD[dK](DOTA)-NHMe; disulfide 4-10) | 0.13 |
| CC(=O)N[C@H](C)C(=O)N[C@@H](CO)C(=O)N[C@@H](CC(=O)O)C(=O)N[C@H]1CSSC[C@@H](C(=O)N2CCC[C@@]2(C)C(=O)N[C@@H](Cc2ccccc2C)C(=O)N[C@@H](CC(=O)O)C(=O)N[C@H](CCCCNC(=O)CN2CCN(CC(=O)O)CCN(CC(=O)O)CCN(CC(=O)O)CC2)C(=O)O)NC(=O)[C@H](CC(N)=O)NC(=O)[C@H](Cc2ccc3ccccc3c2)NC(=O)[C@H](CCC(N)=O)NC(=O)[C@H](CC(C)(C)C)NC(=O)[C@H](Cc2cccc3ccccc23)NC1=O [Cpd #150, Ac-(D-Ala)-S-D-C(3)-(1Nal)-(t-Bu-Ala)-Q-(2Nal)-N-C(3)-(aMe-P)-(2Me-F)-D-[D-Lys(DOTA)]-COOH] (Ac-[dA]SDC[1Nal][tBuAla]Q[2Nal]NC[αMeP][Phe(2-Me)]D[dK](DOTA)-OH; disulfide 4-10) | 0.13 |
| CC(=O)N[C@H](C)C(=O)N[C@@H](CO)C(=O)N[C@@H](CC(=O)O)C(=O)N[C@H]1CSSC[C@@H](C(=O)N2CCC[C@@]2(C)C(=O)N[C@@H](Cc2ccccc2C)C(=O)N[C@@H](CC(=O)O)C(N)=O)NC(=O)[C@H](CC(N)=O)NC(=O)[C@H](Cc2ccc3ccccc3c2)NC(=O)[C@H](CCC(=O)NCCCC[C@H](NC(=O)CN2CCN(CC(=O)O)CCN(CC(=O)O)CCN(CC(=O)O)CC2)C(=O)O)NC(=O)[C@H](CC(C)(C)C)NC(=O)[C@H](Cc2cccc3ccccc23)NC1=O [Cpd #153, Ac-(D-Ala)-S-D-C(3)-(1Nal)-(t-Bu-Ala)-[Glu(εLys(OH)-(DOTA))]-(2Nal)-N-C(3)-(aMe-P)-(2Me-F)-D-CONH2] (Ac-[dA]SDC[1Nal][tBuAla]E(X2)[2Nal]NC[αMeP][Phe(2-Me)]D-NH2; disulfide 4-10) | 0.51 |

Continued, values first:

| Kd [nM] | SMILES |
| --- | --- |
| 0.113 | CC(=O)N[C@H](C)C(=O)N[C@@H](CO)C(=O)N[C@@](C)(CC(=O)O)C(=O)N[C@H]1C/C=C/C[C@@H](C(=O)N2CCC[C@@]2(C)C(=O)N[C@@H](Cc2ccccc2)C(=O)N[C@@H](CC(=O)O)C(N)=O)NC(=O)[C@H](CC(N)=O)NC(=O)[C@H](Cc2ccc3ccccc3c2)NC(=O)[C@H](Cc2ccc(CNC(=O)CN3CCN(CC(=O)O)CCN(CC(=O)O)CCN(CC(=O)O)CC3)cc2)NC(=O)[C@H](CC(C)(C)C)NC(=O)[C@H](Cc2cccc3ccccc23)NC1=O (single isomer, unassigned) [Cpd #193, Ac-(D-Ala)-S-(aMe-Asp)-AllyG(4)-(1Nal)-(t-Bu-Ala)-[PAF(DOTA)]-(2Nal)-N-AllyG(4)-(aMe-P)-F-D-CONH2] |
| 11 | CSCC[C@H](NC(C)=O)C(=O)N[C@@H](CO)C(=O)N[C@@H](CC(=O)O)C(=O)N[C@H]1CSSC[C@@H](C(=O)N2CCC[C@H]2C(=O)N[C@@H](Cc2ccccc2)C(=O)N[C@@H](CC(=O)O)C(N)=O)NC(=O)[C@H](CC(N)=O)NC(=O)[C@H](Cc2c[nH]c3ccccc23)NC(=O)[C@H](CCC(N)=O)NC(=O)[C@H](CC(C)C)NC(=O)[C@H](Cc2c[nH]c3ccccc23)NC1=O [Cpd #1, Ac-M-S-D-C(3)-W-L-Q-W-N-C(3)-P-F-D-CONH2] (Ac-MSDCWLQWNCPFD-NH2; disulfide 4-10) |
| 14 | CSCC[C@H](NC(=O)CCCCCNC(=O)CN1CCN(CC(=O)O)CCN(CC(=O)O)CCN(CC(=O)O)CC1)C(=O)N[C@@H](CO)C(=O)N[C@@H](CC(=O)O)C(=O)N[C@H]1CSSC[C@@H](C(=O)N2CCC[C@H]2C(=O)N[C@@H](Cc2ccccc2)C(=O)N[C@@H](CC(=O)O)C(N)=O)NC(=O)[C@H](CC(N)=O)NC(=O)[C@H](Cc2c[nH]c3ccccc23)NC(=O)[C@H](CCC(N)=O)NC(=O)[C@H](CC(C)C)NC(=O)[C@H](Cc2c[nH]c3ccccc23)NC1=O [Cpd #7, DOTA-Ahx-M-S-D-C(3)-W-L-Q-W-N-C(3)-P-F-D-CONH2] ({DOTA-Ahx}-MSDCWLQWNCPFD-NH2; disulfide 4-10) |
| > 30 | CC(=O)N[C@H](C(=O)N[C@@H](CO)C(=O)N[C@@H](CC(=O)O)C(=O)N[C@H]1CSCc2cccc(c2)CSC[C@@H](C(=O)N2CCC[C@@]2(C)C(=O)N[C@@H](Cc2ccccc2)C(=O)N[C@@H](CC(=O)O)C(=O)N[C@H](CCCCNC(=O)CN2CCN(CC(=O)O)CCN(CC(=O)O)CCN(CC(=O)O)CC2)C(N)=O)NC(=O)[C@H](CC(N)=O)NC(=O)[C@H](Cc2c[nH]c3ccccc23)NC(=O)[C@H](CCC(N)=O)NC(=O)[C@H](CC(C)C)NC(=O)[C@H](Cc2cccc3ccccc23)NC1=O)C1CCCCC1 [Cpd #144, Ac-(Chg)-S-D-C(mDBX)-(1Nal)-L-Q-W-N-C(2)-(aMe-P)-F-D-D-Lys(DOTA)-CONH2] (Ac-[Chg]SDC[1Nal]LQWNC[αMeP]FD[dK](DOTA)-NH2; linker 4-10 via mXylylene) |
| 0.28 | CC(=O)N[C@H](C)C(=O)N[C@H](CO)C(=O)N[C@@H](CC(=O)O)C(=O)N[C@H]1CSSC[C@@H](C(=O)N2CCC[C@@]2(C)C(=O)N[C@@H](Cc2ccccc2C)C(=O)N[C@@H](CC(=O)O)C(N)=O)NC(=O)[C@H](CC(N)=O)NC(=O)[C@H](Cc2ccc3ccccc3c2)NC(=O)[C@H](CCCCNC(=O)[C@H]2CC[C@H](CNC(=O)CN3CCN(CC(=O)O)CCN(CC(=O)O)CCN(CC(=O)O)CC3)CC2)NC(=O)[C@H](CC(C)(C)C)NC(=O)[C@H](Cc2cccc3ccccc23)NC1=O [Cpd #151, Ac-(D-Ala)-S-D-C(3)-(1Nal)-(t-Bu-Ala)-[L-Lys(Chx-DOTA)]-(2Nal)-N-C(3)-(aMe-P)-(2Me-F)-D-CONH2] (Ac-[dA][dS]DC[1Nal][tBuAla]K([Trx-DOTA])[2Nal]NC[αMeP][Phe(2-Me)]D-NH2; disulfide 4-10) |
